Measured values: patent publication US20050075375A1 (priority 2003, published 2005)
Where two headings read alike, the source gives them in different places.

System: monocistronic NK5.1 HCV replicon in Huh7 cells
Experiment: HCV replicon assay, monocistronic replicon cell line
Type: cell-based, hepatitis C virus
Conditions: Hepatitis C virus, read-out: Mono EC50 Median
In short: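 Huh7 cells carrying the monocistronic NK5.1 replicon, seeded 24 h before dosing, were exposed to six-point half-log compound series (0.6% DMSO) for 3 days at 37 °C. Replicon RNA was quantified by TaqMan RT-PCR, normalised to GAPDH and compared with DMSO controls to derive EC50.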

[1] = Huh-7, 72 h, Table 1, monocistronic replicon in Huh7 cells, 3 days incubation, HCV RNA/GAPDH RNA by TaqMan RT-PCR
[2] = Huh-7, monocistronic NK5.1 HCV replicon in Huh7 cells, median value

Row | Structure (SMILES) | EC50 [1] [µM] | EC50 [2] [µM] | EC50 (Huh-7, 72 h, table T3 (compounds 471-640), monocistronic replicon in Huh7 cells, 3 days incubation, HCV RNA/GAPDH RNA by TaqMan RT-PCR) [µM]
1 | COc1cccc(-c2nc(-c3ccccn3)no2)c1 [Compound 139, 2-[5-(3-Methoxy-phenyl)-[1,2,4]oxadiazol-3-yl]-pyridine] | 18 |  | 
2 | Cc1ccc(-c2nc(-c3ncccc3C)no2)c(O)c1 [Compound 295] |  | 2.1 | 
3 | COc1ccc(Br)cc1-c1nc(-c2ccc(C(F)(F)F)cn2)n[nH]1 [Compound 529, 2-[5-(5-Bromo-2-methoxy-phenyl)-1H-[1,2,4]triazol-3-yl]-5-trifluoromethyl-pyridine] |  |  | > 19
4 | COc1cccc(-c2nc(-c3ncccc3C)n[nH]2)c1 [Compound 458, 2-[5-(3-Methoxy-phenyl)-1H-[1,2,4]triazol-3-yl]-3-methyl-pyridine] |  | > 32 | 
5 | Fc1ccccc1-c1nc(-c2nccc3ccccc23)n[nH]1 [Compound 470] |  | 7.2 | 
6 | CCCNC(=O)c1cc(-c2ccc3ccccc3c2)nn1-c1ncccc1C(F)(F)F [Compound 76, 5-Naphthalen-2-yl-2-(3-trifluoromethyl-pyridin-2-yl)-2H-pyrazole-3-carboxylic acid propylamide] | 9.4 |  | 
7 | Cc1cccnc1-c1noc(-c2cc(O)ccc2O)n1 [Compound 179, 2-[3-(3-Methyl-pyridin-2-yl)-[1,2,4]oxadiazol-5-yl]-benzene-1,4-diol] | 1.3 |  | 
8 | Fc1ccccc1-c1nnc(-c2ncccc2C(F)(F)F)o1 [Compound 348, 2-[5-(2-Fluoro-phenyl)-[1,3,4]oxadiazol-2-yl]-3-trifluoromethyl-pyridine] |  | > 32 | 
9 | O=C(O)c1cc(-c2ccc3ccccc3c2)nn1-c1ccccn1 [Compound 73, 5-Naphthalen-2-yl-2-pyridin-2-yl-2H-pyrazole-3-carboxylic acid] | > 32 |  | 
10 | c1ccc2c(-c3nc(-c4nccc5ccccc45)no3)cccc2c1 [Compound 200, 1-(5-Naphthalen-1-yl-[1,2,4]oxadiazol-3-yl)-isoquinoline] | > 32 |  | 
11 | COc1ccccc1-c1nnc(-c2ccco2)o1 [Compound 330, 2-Furan-2-yl-5-(2-methoxy-phenyl)-[1,3,4]oxadiazole] |  | > 32 | 
12 | COc1ccc(F)c(-c2nc(-c3cccc(C)n3)n[nH]2)c1 [Compound 406, 2-[5-(2-Fluoro-5-methoxy-phenyl)-1H-[1,2,4]triazol-3-yl]-6-methyl-pyridine] |  | > 19 | 
13 | COc1ccccc1-c1nnc(-c2ccccc2[N+](=O)[O-])o1 [Compound 328, 2-(2-Methoxy-phenyl)-5-(2-nitro-phenyl)-[1,3,4]oxadiazole] |  | > 32 | 
14 | COc1cccc(-c2nc(-c3ccccn3)no2)c1O [Compound 151, 2-Methoxy-6-(3-pyridin-2-yl-[1,2,4]oxadiazol-5-yl)-phenol] | 18 |  | 
15 | COc1ccc(OCc2ccccc2)c(-c2ccn(Cc3ccc4ccccc4n3)n2)c1 [Compound 112, 2-[3-(2-Benzyloxy-5-methoxy-phenyl)-pyrazol-1-ylmethyl]-quinoline] | 6 |  | 
16 | FC(F)(F)c1cccnc1-c1noc(-c2cccc3ccccc23)n1 [Compound 153, 2-(5-Naphthalen-1-yl-[1,2,4]oxadiazol-3-yl)-3-trifluoromethyl-pyridine] | 7.9 |  | 
17 | FC(F)(F)c1ccc(-c2noc(-c3cccc4ccccc34)n2)nc1 [Compound 227, 2-(5-Naphthalen-1-yl-[1,2,4]oxadiazol-3-yl)-5-trifluoromethyl-pyridine] | > 32 | > 32 | 
18 | COc1ccc(OCc2ccccc2)c(-c2ccn(Cc3nccc(OC)c3OC)n2)c1 [Compound 103, 2-[3-(2-Benzyloxy-5-methoxy-phenyl)-pyrazol-1-ylmethyl]-3,4-dimethoxy-pyridine] | > 32 |  | 
19 | COc1ccc(O)c(-c2nc(-c3ncccc3Br)no2)c1 [Compound 258, 2-[3-(3-Bromo-pyridin-2-yl)-[1,2,4]oxadiazol-5-yl]-4-methoxy-phenol] |  | > 10 | 
20 | COc1ccc(-c2nc(-c3ncccc3C)n[nH]2)c(O)c1 [Compound 451, 5-Methoxy-2-(5-(3-methyl-pyridin-2-yl)-2H-[1,2,4]triazol-3-yl)-phenol] |  | 23 | 
